From PubChem BioAssay (NCI)
Values joined by “and” are separate entries in the source; they are usually repeats but may differ in a detail not shown here. Equal values may be shown once.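 Compound exposure: 48 hours, 5 concentrations, 96-well plates. At the GI50, growth is halved. TGI: total growth inhibition.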

Columns and labels:
Experiment in all cases: growth of human tumour cells (NCI), 48 h
[1] = system: SK-OV-3 ovarian
[2] = system: HOP-92 NSCLC
[3] = system: RXF 393 renal
[4] = system: NCI-H226 lung
[5] = system: NCI-H23 lung
[6] = system: A498 renal
[7] = system: T-47D breast
[8] = system: SNB-75 CNS
[9] = system: SW-620 colon
[10] = system: SN12C renal

| Compound | GI50 [1] [µM] | TGI [1] [µM] | GI50 [2] | TGI [2] | GI50 [3] [µM] | TGI [3] [µM] | GI50 [4] [µM] | TGI [4] [µM] | GI50 [5] | TGI [5] | GI50 [6] [µM] | TGI [6] [µM] | GI50 [7] [µM] | TGI [7] [µM] | GI50 [8] [µM] | TGI [8] [µM] | GI50 [9] | TGI [9] [µM] | GI50 [10] | TGI [10] |
| --- | --- | --- | --- | --- | --- | --- | --- | --- | --- | --- | --- | --- | --- | --- | --- | --- | --- | --- | --- | --- |
| O=C(/C=C/c1ccco1)Nc1ncc(Cc2cc(Cl)ccc2Cl)s1 | 0.0538 | > 100 | 6.91 µM | > 100 µM | 0.0328 | 0.303 | 0.581 | > 100 | 0.156 µM | > 100 µM | 0.0245 | 3.96 | 0.255 | > 100 | 0.0261 | 0.433 | 0.0417 µM | > 100 | 0.117 µM | > 100 µM |
| CC1CCc2c(C(=O)Nc3ncc(Cc4cccc([N+](=O)[O-])c4)s3)csc2C1 (stereo unspecified) | 0.436 | > 100 | 2.68 µM | > 100 µM | 0.938 | 4.02 | 1.96 | > 100 | 1.83 µM | > 100 µM | 0.267 | 0.864 | 0.653 | > 100 | 0.369 | 1.66 | 0.414 µM | > 100 | 1.49 µM | > 100 µM |
| COc1cc(C(=O)/C=C/c2c[nH]c3ccccc23)cc(OC)c1OC | 0.0438 | 31.1 | 0.0269 µM | 6.46 µM | 0.0238 | 34.7 | 0.397 | 26.8 | 0.0602 µM | 45.4 µM | < 0.0119 | 0.0414 | 0.0393 | 18.4 | 0.0264 | 37.2 | < 0.0123 µM | > 100 | 0.0631 µM | 18.9 µM |
| N#Cc1ccc2c(-c3ccnc(NC4CC4)n3)c(-c3ccc(F)cc3)nn2c1 | 22.4 | > 25 | > 25 µM | > 25 µM | > 25 | > 25 | > 25 | > 25 | > 25 µM | > 25 µM | > 25 | > 25 | > 25 | > 25 | > 17.2 | > 25 | > 25 µM | > 25 | > 25 µM | > 25 µM |
| COc1cc(/C=N/NC(=O)c2cnn3c2NC(c2ccccc2)C3)ccc1OCc1ccccc1 (stereo unspecified) | 1.71 | 11.1 | 1.48 µM | 5.77 µM | 1.29 | 3.96 | 2.17 | 21.8 | 1.2 µM | 6.12 µM | 0.226 | 2.5 | 1.22 | > 37.5 | 0.595 | 2.24 | 0.569 µM | 2.76 | 2.26 µM | 11 µM |
| COc1oc(C2C/C(=C/C(C)=C/C(C)=C/C(C)=C/c3ccc([N+](=O)[O-])cc3)CO2)c(C)c(=O)c1C (stereo unspecified) |  | > 63.5 |  | 40 µM |  | 95.1 |  | > 54.3 |  | 31.4 µM |  | 47.4 |  | 6.81 |  | > 57.5 |  | > 100 |  | 27 µM |
| COc1cc2c3c(c4cc(OC)c(OC)cc4c2cc1OC)CN1CCC[C@H]1C3 |  | 0.172 | 0.0366 µM and < 0.0105 µM | 1.34 µM and 0.695 µM | 0.00487 | 0.0931 |  | 1.06 | 0.0406 µM and < 0.0123 µM | 0.653 µM and 3.4 µM |  | 0.0368 | 0.0192 | 0.33 | 0.0084 | 0.0663 | 0.0734 µM and < 0.0124 µM |  | 0.0429 µM and < 0.0105 µM | 1.3 µM and 0.374 µM |
| CC[C@H](C)[C@H](NC(=O)CN(C)C)C(=O)N(C)[C@H](C[C@@H](OC(C)=O)c1nc(C(=O)NC23C4C5C2C2C3C4C52C(=O)OC)cs1)C(C)C (stereo partly specified) | 4.15 | > 33.2 | > 33.2 µM | > 33.2 µM | 0.387 | > 33.2 | > 29 | > 33.2 | 1.42 µM | > 33.2 µM | 0.993 | 21.5 | > 33.2 | > 33.2 | 0.119 | > 33.2 | 0.226 µM | > 33.2 | 0.276 µM | > 18.8 µM |
| CCCCCn1sc(=O)n(Cc2ccc(CNC(=O)C(C)c3ccc(CC(C)C)cc3)cc2)c1=O (stereo unspecified) | 3.5 | 14.7 | 0.577 µM | 2.09 µM | 0.727 | 1.94 | 1.3 | 2.67 | 1.45 µM | 2.96 µM | 1.46 | 2.81 | 1.6 | 4.05 | 0.431 | 1.86 | 0.37 µM | 1.46 | 1.1 µM | 2.37 µM |
